Results reported in PubChem BioAssay AID2060510 (Molecular Pharmacology Branch, DTP, NCI, 2025).

System: 439559-082-T-J2-PDC spheroids viability
Test: Anticancer human tumor 439559-082-T-J2-PDC patient-derived colon adenocarcinoma cell line growth inhibition [GQUAD]
Details: for IC50: curve of first compound; for viability, T/C: stronger effect = lower value
Description: DNA G-quadruplex Stabilizer Agents in Combinations in Complex Spheroids
A high-throughput screen of multi-cell type tumor spheroids was designed to identify active combinations of DNA G-quadruplex stabilizer agents and targeted small molecules. Complex spheroids include a stromal component modeled by human endothelial cells (HUVEC) and fibroblasts modeled by human mesenchymal stem cells (MSCs). The concentration ranges selected for each drug and investigational agent were based upon clinically achievable concentrations if the clinical Cmax of the agent was known.
Compounds. The drugs and investigational agents: pidnarulex (CX-5461; NSC782164), APTO-253 (NSC789042), BRACO-19 (NSC847499), peposertib (NSC802822), ceralasertib (NSC780249), elimusertib (NSC800525), camonsertib (NSC841442), AZD-1390 (NSC803789), olaparib (NSC753686), talazoparib (NSC767125), ART-558 (NSC835418), sotorasib (NSC818433), MRTX-1133 (NSC836407), SN-38 (NSC673596), topotecan (NSC609699), etoposide (NSC141540), doxorubicin (NSC123127), gemcitabine (NSC613327), 5-fluorouracil (NSC19893), paclitaxel (NSC125973), vemurafenib (NSC761431), panobinostat (NSC761190), R-306465 (JNJ-16241199; NSC773264), adavosertib (NSC754352), TP-3654 (NSC805149), carboplatin (NSC241240), KSQ-4279 (NSC840948), and staurosporine (NSC755774) were obtained from the National Cancer Institute (NCI) Developmental Therapeutics Program Chemical Repository (34). The FDA-approved anticancer drug set is available from the NCI Developmental Therapeutics Program. […] The stock solutions were prepared in dimethyl sulfoxide (DMSO, Sigma-Aldrich, St. Louis, MO, cat. D2650) at 800-fold the tested concentration and stored at -70 degrees C prior to their use. All drugs and investigational agents were tested over a range starting from a high concentration at or near the clinical Cmax and decreasing in half-log increments. If the clinical Cmax for an agent had not been determined, the highest concentration tested was 10 microM.
2.3 Cell Culture. All cells were maintained in an incubator at 37 degrees C and 5% CO2 with 95% humidity. The PDC lines were cultured according to standard operating procedures established by the NCI PDMR. All PDCs were thawed and cultured in Matrigel-coated flasks prepared with a working solution of 1X Ham's F-12 nutrient mix, without supplementation (Invitrogen, cat. 11765054), 100 U/mL penicillin-streptomycin (Invitrogen, cat. 15140122), and 2.5% Matrigel (Corning Inc., cat. 354248) for the first three passages. The 857933-349-R-J2-PDC line was cultured in 6C/Colon 1B media, which includes advanced DMEM/F-12 (Thermo Fisher Scientific, cat. 12634028), 10 mM HEPES (Thermo Fisher Scientific, cat. 15630080), 1X GlutaMAX supplement (Thermo Fisher Scientific, cat. 35050061), 0.1 mg/mL primocin (InvivoGen, cat. ant-pm-2), 10% defined fetal bovine serum, heat inactivated (HyClone Laboratories Inc., cat. SH30070.03HI), 50% L-WRN conditioned media (ATCC, cat. CRL-3276), 1.25 mM N-Acetyl-L-cysteine (Sigma-Aldrich, cat. A9165), 10 mM nicotinamide (Sigma-Aldrich, cat. N0636), 1X B-27 supplement (Thermo Fisher Scientific, cat. 17504044), 1X N-2 supplement (Thermo Fisher Scientific, cat. 17502048), 10 microM Y-27632 dihydrochloride (Tocris Bioscience, cat. 1254), and 50 ng/mL human EGF recombinant protein (Thermo Fisher Scientific, cat. PHG0311). The 485176-168-R4-J1-PDC line was cultured in Panc media, which includes all 6C/Colon 1B media components plus 100 ng/mL human FGF-10 (Thermo Fisher Scientific, cat. 100-26), 500 nM SB-431542 (Selleckchem, cat. S1067), and gastrin (Tocris, cat. 3006).
[…]
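Also: spheroids exposed to the agents for 7 days before readout.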
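For viability, T/C in this document: percent of luminescence signal in DMSO vehicle wells taken as 100% viability.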

**Q.** What does the source list for `COc1cccc2c1C(=O)c1c(O)c3c(c(O)c1C2=O)CC(O)(C(=O)CO)CC3OC1CC(N)C(O)C(C)O1` (configuration not stated) + CN(C)c1ccc(Nc2c3ccc(NC(=O)CCN4CCCC4)cc3nc3cc(NC(=O)CCN4CCCC4)ccc23)cc1?
**A.** IC50 (second compound 0.0316 µM): 5.76 µM; IC50 (second compound 0.1 µM): 7.85 µM; IC50 (second compound 0.316 µM): 6.45 µM; IC50 (second compound 1 µM): 5.9 µM; IC50 (second compound 3.16 µM): 5.07 µM; IC50 (second compound 10 µM): 7.92 µM; viability, T/C (second compound 0.0316 µM, first compound 0.0316 µM): 106%; viability, T/C (second compound 0.0316 µM, first compound 0.1 µM): 86.7%; viability, T/C (second compound 0.0316 µM, first compound 0.316 µM): 93.4%; viability, T/C (second compound 0.0316 µM, first compound 1 µM): 77.5%; viability, T/C (second compound 0.0316 µM, first compound 3.16 µM): 62.2%; viability, T/C (second compound 0.0316 µM, first compound 10 µM): 38.8%; viability, T/C (second compound 0.1 µM, first compound 0.0316 µM): 93.8%; viability, T/C (second compound 0.1 µM, first compound 0.1 µM): 95.5%; viability, T/C (second compound 0.1 µM, first compound 0.316 µM): 89.1%; viability, T/C (second compound 0.1 µM, first compound 1 µM): 73.2%; viability, T/C (second compound 0.1 µM, first compound 3.16 µM): 59.1%; viability, T/C (second compound 0.1 µM, first compound 10 µM): 47.4%; viability, T/C (second compound 0.316 µM, first compound 0.0316 µM): 96.8%; viability, T/C (second compound 0.316 µM, first compound 0.1 µM): 101%; viability, T/C (second compound 0.316 µM, first compound 0.316 µM): 91.9%; viability, T/C (second compound 0.316 µM, first compound 1 µM): 83.5%; viability, T/C (second compound 0.316 µM, first compound 3.16 µM): 60.6%; viability, T/C (second compound 0.316 µM, first compound 10 µM): 43.4%; viability, T/C (second compound 1 µM, first compound 0.0316 µM): 91.3%; viability, T/C (second compound 1 µM, first compound 0.1 µM): 99.9%; viability, T/C (second compound 1 µM, first compound 0.316 µM): 89.8%; viability, T/C (second compound 1 µM, first compound 1 µM): 86.1%; viability, T/C (second compound 1 µM, first compound 3.16 µM): 59.4%; viability, T/C (second compound 1 µM, first compound 10 µM): 42%; viability, T/C (second compound 3.16 µM, first compound 0.0316 µM): 94.6%; viability, T/C (second compound 3.16 µM, first compound 0.1 µM): 96.1%; viability, T/C (second compound 3.16 µM, first compound 0.316 µM): 84%; viability, T/C (second compound 3.16 µM, first compound 1 µM): 84.9%; viability, T/C (second compound 3.16 µM, first compound 3.16 µM): 54.8%; viability, T/C (second compound 3.16 µM, first compound 10 µM): 42.4%; viability, T/C (second compound 10 µM, first compound 0.0316 µM): 88.7%; viability, T/C (second compound 10 µM, first compound 0.1 µM): 102%; viability, T/C (second compound 10 µM, first compound 0.316 µM): 82.4%; viability, T/C (second compound 10 µM, first compound 1 µM): 77.8%; viability, T/C (second compound 10 µM, first compound 3.16 µM): 62.4%; viability, T/C (second compound 10 µM, first compound 10 µM): 46.8%
